Patent US20140120106A1, “Stimulation of Arterial Collateral Growth and Lymphogenesis” (YALE UNIVERSITY, priority 2011, published 2014)

How the values were obtained:
HUVEC [1] = assay: qPCR of lymphatic fate genes in RAF1-transduced HUVEC treated with pathway inhibitors for 24 hours; format: cell-based, Human; conditions: HUVEC with GFP or RAF1S259A adenovirus, Rapamycin 10 nM, AKT inhibitor VIII 1 μM
Description: ERK activation was quantified by densitometry and is represented as ratio of pERK1/2 versus total ERK1/2. Immunofluorescence staining showing higher P-ERK1/2 in β-GAL positive endothelial cells of E12.5 S259A embryos. jv, jugular vein. FIGS. 10B-10E are graphs showing HUVEC transduced with control, wild type Raf1 or RAF1S259A lentiviruses treated with DMSO, MEK inhibitor U0126 (10 μM) or PI3K inhibitor LY294002 (10 μM) for 24 hours. Sox18 (FIG. 10B), Prox1 (Figure), Vegfr3 (FIG. 10D) and Lyve1 (10E) expression was assessed by qPCR. FIGS. 10E-10H are graphs showing HUVEC transduced with GFP or RAF1S259A adenoviruses treated with DMSO, Rapamycin (10 nM), AKT inhibitor VIII (1 μM) and LY294002 (10 μM) for 24 hours. Sox18 (FIG. 10F), Prox1 (FIG. 10G) and Coup-TFII (FIG. 10H) expression assessed by qPCR. Data are Mean±SEM (n=3).*, p<0.05; **, p<0.01.
(§1) Total RNA was purified using a QiagenRNeasyPlus Mini kit. cDNA was synthesized using a Bio-Rad iScript cDNA Synthesisis kit. qPCR was performed using a Bio-Rad iQ SYBR Green Supermix on a Bio-Rad CFX96 Real Time System. For immunoblot, cells were lysed in RIPA buffer supplemented with protease and phosphatase inhibitors. Cell lysates were then separated with 4-20% gradient gel (Bio-Rad) and subjected to immunoblot.

ERK = ERK activation by western blot in HUVEC infected with RAF1 WT or RAF1 S259A lentivirus; format: cell-based, Human
14-3-3 = assay: Immunoprecipitation of HA-RAF1 from HUVEC, western blot for 14-3-3; format: binding, Human; conditions: anti-HA immunoprecipitation
HUVEC [2] = assay: Matrigel tube formation assay; format: cell-based, Human; conditions: overexpression in HUVEC, 8 hours
HUVEC [3] = assay: Proliferation assay (cell counting); format: cell-based, Human; conditions: overexpression in HUVEC
HUVEC [4] = assay: Migration (wound healing) assay; format: cell-based, Human; conditions: under stimulation of serum, 18 hours
HUVEC [5] = assay: Apoptosis assay (serum withdrawal, Annexin V/PI flow cytometry); format: cell-based, Human; conditions: serum-starved 48 hours, vehicle, versus empty control lentivirus
HUVEC [6] = assay: qPCR of artery-vein specification genes in lentivirus infected HUVEC; format: cell-based, Human
HUVEC [7] = assay: Western blot of DLL4, cleaved NOTCH1 and ERK in RAF1 virus infected HUVEC; format: cell-based, Human
Akt1-/- cells = assay: Dll4 expression in AKT+/+ and AKT-/- cells expressing RAF1 constructs; format: cell-based
Source text: FIGS. 3A to 3M show expression of Dll4 (FIG. 3A), Hey 1 (FIG. 3B), Hey 2 (FIG. 3C), Hes 1 (FIG. 3D), Coup-TFII (FIG. 3E), EphB4 (FIG. 3F), Dll1 (FIG. 3G), Ephrin B2 (FIG. 3G), Notch 1 (FIG. 3I), Notch 4 (FIG. 3J), Jagged 1 (FIG. 3K), FLK1 (FIG. 3L), Nrp1 (3N) and Flt4 (3N).

HUVEC [8] = assay: qPCR of lymphatic fate genes in virus-transduced HUVEC; format: cell-based, Human
HUAEC = assay: qPCR of Prox1 in lentivirus-transduced HUAEC; format: cell-based, Human; conditions: HUAEC transduced with lentivirus
Source text: Raf1 lentiviruses were produced in 293A cells (Invitrogen) by co-transfection of pLVX-HA-Raf1 WT or S259A with lentiviral packaging plasmids pMD2.G, pRSV-REV and pMDLg/pRRE (Addgene) as described by Dull, J Virol 72:8463-8471 (1998). Control lentivirus was also made using an empty vector pLVX-IRES-puro. Ad-MEK1 CA was from Cell Biolabs, Inc. Ad-Mek1 DN was purchased from Vector Biolabs. All adenoviruses were produced, amplified and purified as described by Dull 1998; Luo, et al. Nat Protoc 2:1236-1247 (2007). For lentiviral infection, cells were incubated with lentivirus in growth medium in the presence of 8 μg/ml polybrene (Sigma) for 8 hours. For adenoviral infection, cells were incubated with adenovirus (MOI=100) in growth medium for overnight.
as §1

HDLEC [9] = assay: qPCR of lymphatic fate genes in adenovirus-transduced HDLEC; format: cell-based, Human
[10] = test system: VE-cadherin-tTA/RAF1S259A double transgenic embryos; assay: Endothelial-specific RAF1S259A transgenic mice (Noonan syndrome mouse model); format: in vivo; conditions: primary EC purified from E12.5 S259A embryos versus control littermates
Source text: Human wild type Raf1 and RAF1S259A plasmids were gifts of Dr. Guri Tzivion (Wayne State University). To generate RAF1S259A transgenic mice, hRAF1S259A was cloned to NotI+PstI sites of pBI-G Tet-off vector (Clontech). TRE-RAF1S259A transgenic mouse line was then generated at the Yale Animal Genomics Services center. VE-cadherin-tT A mice (Sun, et al. Proc Natl Acad Sci USA 102:128-133 (2005)) were from W. Sessa lab (Yale). Time-mating was setup by intercross of male TRE-RAF1 S259A mice with VE-cadherin-tTA female mice. For paraffin and frozen sections, embryos were fixed in 4% paraformaldehyde for overnight at 4° C.
Primary mouse endothelial cells were isolated from E12.5 embryos using a protocol similar to that described by Ren, et al. J Clin Invest 120:1217-1228 (2010). Briefly, E12.5 embryos were harvested, minced finely with scissors, and then digested in 25 ml collagenase 0.2% (w/v) at 37° C. for 20 minutes. The crude cell preparation was pelleted and resuspended in DPBS. The cell suspension was incubated with CD31-coated beads (Invitrogen) at room temperature for 10 minutes with rotation. Using a magnetic separator, the bead-bound cells were recovered, washed with DMEM-20% FBS. The cells were then used for gene expression analysis by qPCR.

HDLEC [11] = assay: Sox18 expression in serum starved HDLEC stimulated with VEGF-C; format: cell-based, Human; conditions: 100 ng/ml VEGF-C
Description: FIGS. 11A-11J are graphs showing excessive ERK activation is the basis of lymphatic abnormalities in Noonan syndrome. HUVEC (FIGS. 11A-11D) and HDLEC (FIGS. 11E-11H) were transduced with adenovirus expressing lacZ, cytosolic localized constitutive active ERK (ME) or nuclear localized constitutive active ERK (LA). Sox18 (FIGS. 11A and 11E), Prox1 (FIGS. 11B and 11F), Vegfr3 (FIGS. 11C and 11G) and Lyve1 (FIGS. 11D and 11H) expression were assessed by qPCR. Data are Mean±SEM (n=3). FIG. 11I is a graph of serum starved HDLEC stimulated with 100 ng/ml VEGF-C for an indicated time in the presence of […] (10 μM) or an equal volume of DMSO. Sox18 expression was assessed by qPCR. Data are Mean±SEM (n=3). FIG. 11J is a graph of lymphatic vessel diameter calculated by whole mount staining of skin vasculature of E14.5 embryos treated with MEK inhibitor U0126 or DMSO. Statistical significance was determined by two-tailed t-test (Control, n=5 embryos; S259A, n=3 embryos).
as §1

[12] = serum-starved HUVEC, 50 ng/ml VEGF-A164
[13] = lentivirus infected HUVEC, qPCR
[14] = adenovirus MOI 0, 5, 10, 50 for 48 hours, HUVEC
[15] = HUVEC transduced with the named construct
[16] = HDLEC transduced with the named construct

## O=c1[nH]c2ccccc2n1C1CCN(Cc2ccc(-c3nc4cc5[nH]cnc5cc4nc3-c3ccccc3)cc2)CC1 [AKT inhibitor VIII]
HUVEC [1]
  Coup-TFII expression: significantly inhibited
  Prox1 expression: significantly inhibited
  Sox18 expression: slightly inducing

## RAF1 S259A: RAF1 Ser259 to Ala259 mutant, not inhibited by AKT; expressed from lentivirus, adenovirus or endothelial transgene
ERK; overexpression in HUVEC by lentivirus
  ERK activation: constitutive activation
ERK; [12]
  Akt signaling: remains normal
  Erk activation: constitutive activation
14-3-3
  co-immunoprecipitation with 14-3-3: did not
HUVEC [2]
  tube formation (tube length): significantly improved
HUVEC [3]
  cell proliferation: significantly inhibited
HUVEC [4]
  cell migration: significantly promoted
HUVEC [5]
  cell survival: significantly higher survival
HUVEC [6]; Raf1SA introduction
  Egr1 expression: activated expression
  Ets1 expression: activated expression
  Sox7 expression: not changed
  Sox18 expression: activated expression
HUVEC [6]; [13]
  Coup-TFII (venous marker) gene expression: no changes
  Dll1 gene expression: not affected
  Dll4 gene expression: dramatically induced
  EphB4 (venous fate gene) expression: no changes
  Ephrin B2 gene expression: dramatically induced
  Flk1 gene expression: induced
  Flt4 gene expression: induced
  Hes1 gene expression: dramatically induced
  Hey1 gene expression: dramatically induced
  Hey2 gene expression: dramatically induced
  Jagged1 gene expression: dramatically induced
  Notch4 gene expression: dramatically induced
  neuropilin1 (Nrp1) gene expression: dramatically induced
HUVEC [6]; lentivirus infected HUVEC, qPCR, listed as RAF1S259A
  Coup-TFII (venous marker) gene expression: slightly inhibiting
HUVEC [7]; HUVEC
  NOTCH1 activation (cleaved NOTCH1): activated
HUVEC [7]; [14]
  DLL4 protein: dose-dependent and parallel increase
  ERK activity: dose-dependent and parallel increase
HUVEC [7]; lentivirus overexpression in HUVEC
  Dll4 protein: dramatically increased
Akt1-/- cells
  DLL4 expression: strongly induced
HUVEC [8]; HUVEC transduced with lentivirus
  Sox7 expression: unchanged
HUVEC [8]; [15]
  Lyve1 expression: Increased expression
  Prox1 expression: upregulated
  Sox17 expression: significant increase
  Sox18 expression: significant increase
  Vegfr3 expression: Increased expression
HUVEC [8]; in vitro or in vivo
  Coup-TFII levels: no significant effect
HUAEC
  Prox1 expression: upregulated
HDLEC [9]; HDLEC transduced with adenovirus
  Prox1 expression: not
HDLEC [9]; [16]
  Lyve1 expression: Increased expression
  Sox17 expression: significant increase
  Sox18 expression: significant increase
  Vegfr3 expression: Increased expression
[10]
  Sox18 levels: significantly higher

B1: VEGF-C: growth factor from R&D, the key VEGF in lymphatic EC (protein, UniProt P49767 112-227, looked up)
Vascular endothelial growth …: AHYNTEILKSIDNEWRKTQCMPREVCIDVGKEFGVATNTFFKPPCVSVYRCGGCCNSEGLQCMNTSTSYLSKTLFEITVPLSQGPKPVTISFANHTSCRCMSKLDVYRQVHSIIRR
HDLEC [11]
  Sox18 expression: induced
